Here are results for five compounds from US20100056468A1, “Pyrimidine Derivatives As Anticancer Agents” (University Health Network, priority 2007, published 2010).

Read-outs that look alike come from different tables or passages of the source.

For one data set, the target named is Mt ODCase (Methanothermobacter thermautotrophicus, UniProt O26232). Particulars: read-out: inhibition constant (Ki), Mt ODCase; cited from earlier work.
For data set [1], the system named is leukemia/lymphoma and breast cancer cell lines (AML1, AML2, SKW3, OCI LY7, OCI MY2, MDA-MB-468 and MCF7). In words: WST-1 cell growth assay, summary over cell lines. It counts as cell-based. Particulars: Homo sapiens, read-out: Inhibition constants (IC50s), range over cell lines. On the procedure: (§1) Thirteen C6 substituted nucleoside derivatives were tested against seventeen cancer cell lines in order to understand their anticancer activity potential. Cell growth was measured in 96 well plates (6 replicates per dose) in which 10^4 cells were seeded for 3 days with a range of concentrations of compound Ic and Id using the Roche WST-1 assay (Ishiyama M et al (1995) In Vitro Toxicology 8, 187-189) following manufactures directions.

The nature of data set [2]: Tolerance in NOD-SCID mice. It is filed as in vivo. Particulars: 0.15 mg/kg and 1.5 mg/kg. The procedure:
(§2) In a pilot study, first the in vivo effects of compound Ic in a murine tumor model (70Z/3) were studied. […]. In this pilot study, 10^6 70Z/3 cells were injected into syngeneic mice (C57BL6×DBA/2) after which the mice were treated with compound Ic on days 2, 3, 4, 7, 8, and 9 at doses of 0.15 mg/kg or 1.5 mg/kg or with PBS. Some mice were also treated with the compound alone to test for toxic effects in the absence of tumor growth. On day 10, two mice from each group were euthanized and they were examined for the presence of disease. After 70Z/3 cells are injected they home to the spleen and proliferate causing increased spleen weight and cellularity. […]. Two additional mice from each group were followed for an additional 7 days during which mice in the treatment groups were treated daily.

The test system of data set [3] is PBMC - Peripheral blood mononuclear cells. In words: WST-1 cell growth assay on stimulated PBMCs (Table 3). It counts as cell-based, human.
The next data set concerns 70Z/3 (murine). In words: WST-1 cell growth assay (Table 3). It is filed as cell-based. As to conditions: Mus musculus, 72 h; 70Z/3 murine B cell leukemia, 3 days. The procedure: as §1
In a pilot study, first the in vivo effects of compound Ic in a murine tumor model (70Z/3) were studied. This murine model served to provide the baseline for toxicity data in a tumor setting. […] In this pilot study, 10^6 70Z/3 cells were injected into syngeneic mice (C57BL6×DBA/2) after which the mice were treated with compound Ic on days 2, 3, 4, 7, 8, and 9 at doses of 0.15 mg/kg or 1.5 mg/kg or with PBS. Some mice were also treated with the compound alone to test for toxic effects in the absence of tumor growth. On day 10, two mice from each group were euthanized and they were examined for the presence of disease. After 70Z/3 cells are injected they home to the spleen and proliferate causing increased spleen weight and cellularity. […] It would appear from this very small pilot study that mice can tolerate a dose of the drug which is ten times more than a dose which reduces tumor expansion in the spleen (FIG. 4 and Table 2). […]

The test system of data set [4] is 70Z/3 murine acute lymphoblastic leukemia. In words: In vivo pilot study on 70Z/3 leukemic mice. On the procedure: as §2
Another data set concerns COLO205. In words: WST-1 cell growth assay (Table 3). It is filed as cell-based. Particulars: Homo sapiens, COLO 205, 72 h; COLO205 colorectal adenocarcinoma, 3 days. On the procedure: as §1
In another data set the test system is OCI MY2. In words: WST-1 cell growth assay (Table 3). It counts as cell-based. Particulars: Homo sapiens, 72 h; OCI MY2 myeloma, 3 days. On the procedure: as §1
In a further data set the test system is OCI LY7. In words: WST-1 cell growth assay (Table 3). It counts as cell-based. As to conditions: Homo sapiens, 72 h; OCI LY7 B cell lymphoma, 3 days. The procedure: as §1
In a further data set the test system is SKW3. In words: WST-1 cell growth assay (Table 3). It counts as cell-based. Particulars: Homo sapiens, 72 h; SKW3 T cell leukemia, 3 days. The procedure: as §1
Another data set concerns LOX. In words: WST-1 cell growth assay (Table 3). It is filed as cell-based. As to conditions: Homo sapiens, 72 h; LOX melanoma, 3 days. The procedure: as §1
The test system of a further data set is OCI AML2. In words: WST-1 cell growth assay (Table 3). It is filed as cell-based. As to conditions: Homo sapiens, 72 h; OCI AML2 myloid leukemia, 3 days. The procedure: as §1
A further data set concerns HS578T. In words: WST-1 cell growth assay (Table 3). It counts as cell-based. As to conditions: Homo sapiens, Hs-578T, 72 h; HS578T breast carcinosarcoma, 3 days. On the procedure:
as §1

Another data set has as its system OVCAR4. In words: WST-1 cell growth assay (Table 3). It counts as cell-based. Particulars: Homo sapiens, OVCAR-4, 72 h; OVCAR4 ovarian adenocarcinoma, 3 days. On the procedure: as §1
The next data set has as its system MCF7. In words: WST-1 cell growth assay (Table 3). It counts as cell-based. As to conditions: Homo sapiens, 72 h; MCF7 breast adenocarcinoma, 3 days. The procedure:
as §1

The next data set relates to PPC1. In words: WST-1 cell growth assay (Table 3). It is filed as cell-based. Particulars: Homo sapiens, PPC-1, 72 h; PPC1 prostate, 3 days. On the procedure: as §1
The next data set relates to CCD967. In words: WST-1 cell growth assay (Table 3). It is filed as cell-based. Particulars: Homo sapiens, CCD-967, 72 h; CCD967 skin fibroblast line, 3 days. The procedure: as §1
Another data set has as its system OCI AML1. In words: WST-1 cell growth assay (Table 3). It is filed as cell-based. Particulars: Homo sapiens, 72 h; OCI AML1 myloid leukemia, 3 days. The procedure: as §1
In the next data set the test system is MDA-MB-468. In words: WST-1 cell growth assay (Table 3). It is filed as cell-based. As to conditions: Homo sapiens, 72 h; MDA-MB-468 breast adenocarcinoma, 3 days. The procedure: as §1
A further data set concerns PC3. In words: WST-1 cell growth assay (Table 3). It is filed as cell-based. As to conditions: Homo sapiens, PC-3, 72 h; PC3 prostate adenocarcinoma, 3 days. On the procedure:
as §1

A further data set deals with SNB19. In words: WST-1 cell growth assay (Table 3). It is filed as cell-based. As to conditions: Homo sapiens, SNB-19, 72 h; SNB19 glioblastoma, 3 days. On the procedure: as §1
Another data set deals with T47D. In words: WST-1 cell growth assay (Table 3). It is filed as cell-based. Particulars: Homo sapiens, 72 h; T47D breast adenocarcinoma, 3 days. On the procedure:
as §1

The target in the next data set is ODCase. Particulars: cited from earlier work.
Data set [5] concerns mouse L1210 leukemia cells. Particulars: 25 μM, cultured mouse L1210 leukemia cells; cited from earlier work.
Where [6] appears, read: Homo sapiens, volunteer, read-out: IC50.
Setting [7] is: healthy human PBMCs stimulated with concanavalin A and phorbol myristate acetate, read-out: inhibitory constants (IC50's).

Mt ODCase, sequence (O26232 whole entry): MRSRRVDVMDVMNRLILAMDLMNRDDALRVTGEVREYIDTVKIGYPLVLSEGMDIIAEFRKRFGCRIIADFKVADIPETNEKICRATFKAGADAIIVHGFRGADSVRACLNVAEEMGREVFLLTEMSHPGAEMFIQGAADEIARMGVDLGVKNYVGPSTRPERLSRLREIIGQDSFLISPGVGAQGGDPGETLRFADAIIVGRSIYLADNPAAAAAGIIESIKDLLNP

Take `O=c1cnn([C@@H]2O[C@H](COP(=O)(O)O)[C@@H](O)[C@H]2O)c(=O)[nH]1` [6-Aza-uridine uridine 5′-monophosphate, 6-aza-uridine 5′-monophosphate]: the Ki at Mt ODCase is 11 µM.
`Nc1cc(=O)[nH]c(=O)n1[C@@H]1O[C@H](CO)[C@@H](O)[C@H]1O` [Ic, 6-Amino uridine]: the IC50 is 0.7 to 3.5 µM in [1]; > 10 µM in data set [3] (setting [6]); > 10 µM in [3] (setting [7]); 0.3 µM with 70Z/3 (murine); > 4 µM in the data set with COLO205; > 4 µM in the data set with OCI MY2. The IC50 was 1.8 ± 0.1 µM in the data set on OCI LY7; 0.8 ± 0.1 µM in the data set with SKW3; > 4 µM with LOX; 0.9 ± 0.1 µM with OCI AML2; > 4 µM in the data set with HS578T; > 4 µM in the data set with OVCAR4. The IC50 in the data set on MCF7 was 1.5 ± 0.1 µM; with PPC1 it was > 4 µM; in the data set on CCD967, > 4 µM; in the data set with OCI AML1, 0.8 ± 0.1 µM; in the data set on MDA-MB-468, 3.7 ± 0.1 µM; in the data set with PC3, > 4 µM. Also, the IC50 with SNB19 and with T47D was > 4 µM in each case. The tolerance result in data set [2] was “tolerated these doses without apparent toxicity”. Besides, the disease progression result in [4] (followed for an additional 7 days, treated daily, untreated mice died on days 11 and 13) is recorded as “no sign of disease progression”. Besides, the “spleen weight and cellularity” value in data set [4] (mice injected with 10^6 70Z/3 cells, 0.15 mg/kg or 1.5 mg/kg on days 2, 3, 4, 7, 8, 9, day 10) was “indistinguishable from the control mice”. Further, in data set [4] (mice without tumor, compound alone, day 10), the “spleen weight or cellularity, compound alone” value was “did not influence spleen weight or cellularity”.
In the case of `[N-]=[N+]=Nc1cc(=O)[nH]c(=O)n1[C@@H]1O[C@H](CO)[C@@H](O)[C@H]1O` [Id, 6-Azido uridine], the IC50 in [1] was 0.7 to 3.5 µM; in [3] (setting [6]) it was > 10 µM; in [3] (setting [7]), > 10 µM; in the data set with 70Z/3 (murine) it was 0.2 µM; in the data set with COLO205 it was > 4 µM; with OCI MY2, 3.8 µM. The IC50 is 1 ± 0.2 µM with OCI LY7; 0.7 ± 0.1 µM with SKW3; 3.8 ± 0.2 µM with LOX; 0.8 ± 0.2 µM in the data set on OCI AML2; > 4 µM with HS578T; > 4 µM in the data set with OVCAR4. Further, the IC50 with MCF7 is 1 ± 0.2 µM; with PPC1, > 4 µM; in the data set with CCD967, > 4 µM; with OCI AML1 it was 0.7 ± 0.1 µM; with MDA-MB-468, 2.5 ± 0.3 µM; in the data set on PC3, > 4 µM. Also, the IC50 with SNB19 and in the data set with T47D was > 4 µM each time.
Take `NC(=O)c1[nH]nc(C2OC(COP(=O)(O)O)C(O)C2O)c1O` (centres unmarked) [Pyrazofurin 5′-monophosphate]: the Ki on ODCase was 0.005 µM.
`NC(=O)c1[nH]nc([C@@H]2O[C@H](CO)[C@@H](O)[C@H]2O)c1O` [pyrazofurin]: the “accumulation of OMP” value in data set [5] was “eight-fold increase”.
